Assay results as given in patent US20120270237A9, “METHODS FOR THE IDENTIFICATION OF KINASE INTERACTING MOLECULES AND FOR THE PURIFICATION OF KINASE PROTEINS” (Cellzone AG, priority 2009, published 2012).

Columns and labels:
[1] = target: T1, IRAK4 (Homo sapiens, UniProt Q9NWZ3); test: Kinobeads competition binding, HL60 cell lysate; parameters: endogenous in cells; host or cells: HL60; details: 10 μM free compound
T1 sequence (Q9NWZ3 1-460): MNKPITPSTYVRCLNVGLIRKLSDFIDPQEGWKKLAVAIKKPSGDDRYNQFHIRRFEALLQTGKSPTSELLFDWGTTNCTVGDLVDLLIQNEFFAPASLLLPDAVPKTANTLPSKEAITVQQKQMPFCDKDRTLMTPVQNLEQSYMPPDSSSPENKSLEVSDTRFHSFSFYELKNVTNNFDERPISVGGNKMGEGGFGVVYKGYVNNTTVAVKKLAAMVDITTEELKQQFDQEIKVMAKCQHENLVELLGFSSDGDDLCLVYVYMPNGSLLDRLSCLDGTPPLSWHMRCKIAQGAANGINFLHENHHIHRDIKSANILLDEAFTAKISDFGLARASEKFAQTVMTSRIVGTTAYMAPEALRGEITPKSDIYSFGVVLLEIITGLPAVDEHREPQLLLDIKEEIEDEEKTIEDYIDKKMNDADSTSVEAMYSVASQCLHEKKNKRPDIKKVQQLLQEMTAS
Description: (§1) To one aliquot of cell lysate 10 μM of the free compound (FIG. 3, CZC31326) was added and allowed to bind to proteins in the lysate. Then the affinity matrix with the immobilized compound (Example 1) was added to capture proteins that were not interacting with the previously added free compound. Beads were separated from the lysate and bead bound proteins were eluted in SDS sample buffer and subsequently separated by SDS-Polyacrylamide gel electrophoresis (FIG. 4). Suitable gel bands were cut out and subjected to in-gel proteolytic digestion with trypsin. The second lysate aliquot was processed identically, however no free compound was added (DMSO solvent control). Peptides originating from samples 1 and 2 were labeled with iTRAQ reagents (iTRAQ 114 and iTRAQ 117) and the combined samples were analyzed with a nano-flow liquid chromatography system coupled online to a tandem mass spectrometer (LC-MS/MS) experiment followed by iTRAQ reporter ion quantification in the MS/MS spectra (Ross et al., 2004. Mol. Cell. Proteomics 3(12):1154-1169). Further experimental protocols can be found in WO2006/134056 and a previous publication (Bantscheff et al., 2007. Nature Biotechnology 25, 1035-1044). Sepharose-beads with the immobilized compound (100 μl beads per pull-down experiment) were equilibrated in lysis buffer and incubated with a cell lysate sample containing 50 mg of protein on an end-over-end shaker (Roto Shake Genie, Scientific Industries Inc.) for 2 hours at 4° C. Beads were collected, transferred to Mobicol-columns (MoBiTech 10055) and washed with 10 ml lysis buffer containing 0.4% NP40 detergent, followed by 5 ml lysis buffer containing 0.2% detergent. To elute bound proteins, 60 μl 2×SDS sample buffer was added to the column. The column was incubated for 30 minutes at 50° C. and the eluate was transferred to a siliconized microfuge tube by centrifugation. Proteins were then alkylated with 108 mM iodoacetamid. Proteins were then separated by SDS-Polyacrylamide electrophoresis (SDS-PAGE). The peptide extracts of samples treated with 10 μM of free compound (CZC31326) and the solvent control (0.5% DMSO) were treated with different variants of the isobaric tagging reagent (iTRAQ Reagents Multiplex Kit, part number 4352135, Applied Biosystems, Foster City, Calif., USA). The iTRAQ reagents are a set of multiplexed, amine-specific, stable isotope reagents that can label peptides on amino groups in up to four different biological samples enabling simultaneous identification and quantitation of peptides. The iTRAQ reagents were used according to instructions provided by the manufacturer. The samples were resuspended in 10 μl 50 mM TEAB solution, pH 8.5 and 10 μl ethanol were added. The iTRAQ reagent was dissolved in 120 μl ethanol and 10 μl of reagent solution were added to the sample. The labeling reaction was performed at room temperature for one hour on a horizontal shaker and stopped by adding 5 μl of 100 mM TEAB and 100 mM glycine in water. The two labeled sampled were then combined, dried in a vacuum centrifuge and resuspended in 10 μl of 0.1% formic acid in water. Relative protein quantitation was performed using peak areas of iTRAQ reporter ion signals essentially as described in an earlier publication (Bantscheff et al., 2007. Nature Biotechnology 25, 1035-1044).

[2] = target: GSK3B (Homo sapiens, UniProt P49841); test: Kinobeads competition binding, HL60 cell lysate; parameters: endogenous in cells; host or cells: HL60; details: 10 μM free compound
GSK3B, sequence (P49841 whole entry): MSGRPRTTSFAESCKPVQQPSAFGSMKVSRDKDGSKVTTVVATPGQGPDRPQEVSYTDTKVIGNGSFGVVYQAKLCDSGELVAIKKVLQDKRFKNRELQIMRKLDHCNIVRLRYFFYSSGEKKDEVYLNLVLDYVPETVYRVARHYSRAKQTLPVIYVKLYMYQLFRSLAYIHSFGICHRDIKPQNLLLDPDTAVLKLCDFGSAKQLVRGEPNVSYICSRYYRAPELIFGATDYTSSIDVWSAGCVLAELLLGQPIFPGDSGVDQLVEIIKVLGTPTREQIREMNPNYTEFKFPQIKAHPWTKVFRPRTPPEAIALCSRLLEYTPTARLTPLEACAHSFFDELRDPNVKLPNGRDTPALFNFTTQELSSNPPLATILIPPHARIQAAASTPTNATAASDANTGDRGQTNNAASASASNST
Description: as §1

[3] = target: PKN1 (Homo sapiens, UniProt Q16512); test: Kinobeads competition binding, HL60 cell lysate; parameters: endogenous in cells; host or cells: HL60; details: 10 μM free compound
PKN1, sequence (Q16512 whole entry): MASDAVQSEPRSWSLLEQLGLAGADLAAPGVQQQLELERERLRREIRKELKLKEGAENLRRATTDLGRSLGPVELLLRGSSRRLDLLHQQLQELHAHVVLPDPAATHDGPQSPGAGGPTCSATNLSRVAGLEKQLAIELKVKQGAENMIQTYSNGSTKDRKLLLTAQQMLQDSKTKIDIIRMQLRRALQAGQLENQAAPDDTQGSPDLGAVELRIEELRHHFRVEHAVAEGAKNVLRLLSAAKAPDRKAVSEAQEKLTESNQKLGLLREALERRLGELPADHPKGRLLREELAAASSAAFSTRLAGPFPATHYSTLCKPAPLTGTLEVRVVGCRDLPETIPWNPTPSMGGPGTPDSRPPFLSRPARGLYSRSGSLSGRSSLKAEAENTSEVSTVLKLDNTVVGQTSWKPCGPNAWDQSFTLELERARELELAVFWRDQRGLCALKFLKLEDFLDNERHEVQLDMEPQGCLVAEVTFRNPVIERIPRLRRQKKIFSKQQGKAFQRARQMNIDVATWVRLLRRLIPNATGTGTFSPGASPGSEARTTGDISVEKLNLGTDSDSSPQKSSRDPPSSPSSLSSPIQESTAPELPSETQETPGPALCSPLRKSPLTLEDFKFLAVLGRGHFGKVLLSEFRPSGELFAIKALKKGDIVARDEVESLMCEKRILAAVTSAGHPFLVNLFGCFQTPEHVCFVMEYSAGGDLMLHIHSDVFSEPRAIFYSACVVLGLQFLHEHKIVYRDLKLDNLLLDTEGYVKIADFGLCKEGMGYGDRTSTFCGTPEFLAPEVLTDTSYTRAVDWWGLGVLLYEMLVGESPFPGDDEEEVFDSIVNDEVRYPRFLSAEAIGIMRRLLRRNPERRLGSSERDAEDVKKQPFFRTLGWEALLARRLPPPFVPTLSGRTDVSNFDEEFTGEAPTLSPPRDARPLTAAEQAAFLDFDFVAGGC
Description: as §1

[4] = target: IRAK1 (Homo sapiens, UniProt P51617); test: Kinobeads competition binding, HL60 cell lysate; parameters: endogenous in cells; host or cells: HL60; details: 10 μM free compound
IRAK1, sequence (P51617 whole entry): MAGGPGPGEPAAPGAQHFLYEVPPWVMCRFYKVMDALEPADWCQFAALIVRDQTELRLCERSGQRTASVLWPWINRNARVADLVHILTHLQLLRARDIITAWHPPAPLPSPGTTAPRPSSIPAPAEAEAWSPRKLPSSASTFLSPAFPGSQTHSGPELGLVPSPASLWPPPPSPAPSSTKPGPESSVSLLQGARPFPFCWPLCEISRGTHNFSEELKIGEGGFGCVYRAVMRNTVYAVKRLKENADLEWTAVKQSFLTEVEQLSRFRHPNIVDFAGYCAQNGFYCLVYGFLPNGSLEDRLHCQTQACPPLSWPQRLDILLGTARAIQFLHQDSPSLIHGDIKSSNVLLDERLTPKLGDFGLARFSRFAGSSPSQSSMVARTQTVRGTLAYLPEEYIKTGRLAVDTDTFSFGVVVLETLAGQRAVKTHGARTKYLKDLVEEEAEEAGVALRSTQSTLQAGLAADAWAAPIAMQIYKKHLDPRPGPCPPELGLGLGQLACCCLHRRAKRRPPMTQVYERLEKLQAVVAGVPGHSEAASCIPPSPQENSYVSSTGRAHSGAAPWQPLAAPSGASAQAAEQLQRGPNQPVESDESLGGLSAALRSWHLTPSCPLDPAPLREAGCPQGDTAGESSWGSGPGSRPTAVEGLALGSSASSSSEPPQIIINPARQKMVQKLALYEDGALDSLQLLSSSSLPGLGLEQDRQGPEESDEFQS
Description: as §1

[5] = target: BCR (Homo sapiens, UniProt P11274); test: Kinobeads competition binding, L-363 cell lysate; parameters: capturing and identification of kinases from L-363 cell lysate; endogenous in cells; host or cells: L-363 (DSMZ ACC49), treated with MG132 before harvest; details: 10 μM free compound, L-363 lysate
BCR, sequence (P11274 whole entry): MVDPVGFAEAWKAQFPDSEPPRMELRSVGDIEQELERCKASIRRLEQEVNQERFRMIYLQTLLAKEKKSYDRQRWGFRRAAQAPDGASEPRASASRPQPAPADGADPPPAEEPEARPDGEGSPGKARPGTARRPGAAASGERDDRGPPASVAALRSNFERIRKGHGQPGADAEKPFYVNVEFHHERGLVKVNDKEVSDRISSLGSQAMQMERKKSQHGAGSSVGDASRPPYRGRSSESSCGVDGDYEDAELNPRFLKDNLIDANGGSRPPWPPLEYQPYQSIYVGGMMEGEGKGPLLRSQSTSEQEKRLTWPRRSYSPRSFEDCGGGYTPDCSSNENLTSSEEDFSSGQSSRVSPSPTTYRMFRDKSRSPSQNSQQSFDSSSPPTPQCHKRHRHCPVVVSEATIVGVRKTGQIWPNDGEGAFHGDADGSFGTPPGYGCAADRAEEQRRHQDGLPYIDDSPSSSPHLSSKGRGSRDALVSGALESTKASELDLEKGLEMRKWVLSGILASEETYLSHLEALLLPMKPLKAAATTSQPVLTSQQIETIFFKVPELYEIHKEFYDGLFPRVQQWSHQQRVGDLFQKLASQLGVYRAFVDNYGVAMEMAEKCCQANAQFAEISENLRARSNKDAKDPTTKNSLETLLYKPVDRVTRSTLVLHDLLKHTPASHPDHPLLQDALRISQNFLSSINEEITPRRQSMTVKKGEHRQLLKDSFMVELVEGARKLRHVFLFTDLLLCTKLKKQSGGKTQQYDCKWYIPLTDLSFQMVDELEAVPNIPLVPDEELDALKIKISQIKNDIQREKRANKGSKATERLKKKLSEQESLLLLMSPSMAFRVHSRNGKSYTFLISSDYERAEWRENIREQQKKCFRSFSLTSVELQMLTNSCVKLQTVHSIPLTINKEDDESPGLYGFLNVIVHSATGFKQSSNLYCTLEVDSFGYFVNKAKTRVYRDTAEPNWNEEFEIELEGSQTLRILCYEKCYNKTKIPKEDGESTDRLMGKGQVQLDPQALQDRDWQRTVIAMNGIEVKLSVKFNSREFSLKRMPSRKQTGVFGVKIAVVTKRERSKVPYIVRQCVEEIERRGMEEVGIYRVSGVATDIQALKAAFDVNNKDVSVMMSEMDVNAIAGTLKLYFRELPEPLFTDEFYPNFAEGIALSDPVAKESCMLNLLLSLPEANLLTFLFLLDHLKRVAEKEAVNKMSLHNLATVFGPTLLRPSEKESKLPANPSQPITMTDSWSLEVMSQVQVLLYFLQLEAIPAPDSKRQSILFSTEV
Description: (§2) To one aliquot of cell lysate 10 μM of the free compound (FIG. 3, CZC31326) was added and allowed to bind to proteins in the lysate. Then the affinity matrix with the immobilized compound was added to capture proteins that were not interacting with the previously added free compound. Beads were separated from the lysate and bead bound proteins were eluted in SDS sample buffer and subsequently separated by SDS-Polyacrylamide gel electrophoresis (FIG. 8). Suitable gel bands were cut out and subjected to in-gel proteolytic digestion with trypsin. The second lysate aliquot was processed identically, however no free compound was added (DMSO solvent control). Peptides originating from samples 1 and 2 were labeled with iTRAQ reagents (iTRAQ 114 and iTRAQ 117) and the combined samples were analyzed with a nano-flow liquid chromatography system coupled online to a tandem mass spectrometer (LC-MS/MS) experiment followed by iTRAQ reporter ion quantification in the MS/MS spectra as described in Example 2.
(§3) For this experiment the human plasma cell leukaemia line L-363 was used (German Collection of Microorganisms and Cell Cultures, DSMZ number ACC49, Braunschweig, Germany). Cells were treated for three hours with 20 μM of the proteasome inhibitor MG132 (Z-Leu-Leu-Leu-al, Sigma C2211) prior to cell harvesting.

[6] = target: LYN (Homo sapiens, UniProt P07948); test: Kinobeads competition binding, L-363 cell lysate; parameters: capturing and identification of kinases from L-363 cell lysate; endogenous in cells; host or cells: L-363 (DSMZ ACC49), treated with MG132 before harvest; details: 10 μM free compound, L-363 lysate
LYN, sequence (P07948 whole entry): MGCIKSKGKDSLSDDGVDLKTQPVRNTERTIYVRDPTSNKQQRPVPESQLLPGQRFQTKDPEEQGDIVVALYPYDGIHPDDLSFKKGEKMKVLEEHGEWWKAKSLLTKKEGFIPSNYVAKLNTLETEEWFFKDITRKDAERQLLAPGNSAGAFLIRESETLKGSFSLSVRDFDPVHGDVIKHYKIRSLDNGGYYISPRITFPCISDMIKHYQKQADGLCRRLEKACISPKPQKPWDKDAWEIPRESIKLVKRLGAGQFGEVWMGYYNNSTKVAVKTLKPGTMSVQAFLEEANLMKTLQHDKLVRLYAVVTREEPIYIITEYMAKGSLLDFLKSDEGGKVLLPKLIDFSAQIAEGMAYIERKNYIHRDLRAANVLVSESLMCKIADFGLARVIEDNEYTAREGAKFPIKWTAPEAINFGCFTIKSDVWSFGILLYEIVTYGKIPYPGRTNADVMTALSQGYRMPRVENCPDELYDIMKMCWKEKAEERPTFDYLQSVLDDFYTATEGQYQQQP
Description: as §2, §3

## CS(=O)(=O)Nc1ccccc1Nc1nc(Nc2cccc(OCCN)c2)ncc1Cl [CZC31326, N-(2-(2-(3-(2-aminoethoxy)phenylamino)-5-chloropyrimidin-4-ylamino)phenyl)methanesulfonamide]
[1]
  Competition %: 97.5%
[2]
  inhibition at 10 µM: 96.1%
[3]
  inhibition at 10 µM: 97%
[4]
  inhibition at 10 µM: 94.9%
[5]
  inhibition at 10 µM: 93.6%
[6]
  inhibition at 10 µM: 94.5%
